Patent publication US10266549B2, “ULK1 inhibitors and methods using same” (SALK INSTITUTE FOR BIOLOGICAL STUDIES, priority 2014, dated 2019)

biological target: ULK1 (Homo sapiens (Human), UniProt O75385); assay: ULK1 inhibition assay (Table 1); format: biochemical; conditions: * = tested as a mixture of regioisomers
Sequence (O75385 whole entry, species assumed): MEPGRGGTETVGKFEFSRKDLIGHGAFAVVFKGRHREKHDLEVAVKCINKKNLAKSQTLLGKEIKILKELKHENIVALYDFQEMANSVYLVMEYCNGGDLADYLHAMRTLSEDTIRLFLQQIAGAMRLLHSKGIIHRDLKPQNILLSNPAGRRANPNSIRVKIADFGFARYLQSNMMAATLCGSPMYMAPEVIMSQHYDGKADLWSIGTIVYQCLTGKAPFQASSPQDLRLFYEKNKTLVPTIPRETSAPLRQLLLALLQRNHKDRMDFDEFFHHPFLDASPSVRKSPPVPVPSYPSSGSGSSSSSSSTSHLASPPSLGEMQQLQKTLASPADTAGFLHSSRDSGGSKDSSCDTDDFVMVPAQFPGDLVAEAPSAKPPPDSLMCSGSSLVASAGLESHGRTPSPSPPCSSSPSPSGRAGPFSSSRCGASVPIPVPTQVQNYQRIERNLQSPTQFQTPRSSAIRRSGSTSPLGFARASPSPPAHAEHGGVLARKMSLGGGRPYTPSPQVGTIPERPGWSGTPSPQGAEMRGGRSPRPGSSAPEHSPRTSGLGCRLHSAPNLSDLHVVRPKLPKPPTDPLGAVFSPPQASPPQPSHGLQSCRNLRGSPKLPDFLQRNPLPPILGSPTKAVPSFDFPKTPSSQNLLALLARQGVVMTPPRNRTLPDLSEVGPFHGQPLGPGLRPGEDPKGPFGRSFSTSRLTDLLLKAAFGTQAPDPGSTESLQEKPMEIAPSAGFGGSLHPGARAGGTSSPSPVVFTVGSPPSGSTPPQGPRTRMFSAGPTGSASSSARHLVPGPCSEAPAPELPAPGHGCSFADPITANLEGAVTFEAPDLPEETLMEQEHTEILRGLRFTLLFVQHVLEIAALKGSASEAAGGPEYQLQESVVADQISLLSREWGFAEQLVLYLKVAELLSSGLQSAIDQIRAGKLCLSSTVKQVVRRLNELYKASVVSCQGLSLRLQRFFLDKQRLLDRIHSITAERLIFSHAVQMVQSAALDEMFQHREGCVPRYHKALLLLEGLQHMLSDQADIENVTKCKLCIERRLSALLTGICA

Row | Compound | IC50 [nM]
1 | Brc1cnc(Nc2cnc3[nH]ccc3c2)nc1NC1CC1 [compound 174, 5-bromo-N4-cyclopropyl-N2-(1H-pyrrolo[2,3-b]pyridin-5-yl)pyrimidine-2,4-diamine] | < 200
2 | COc1c(C)cnc(CNc2nc(Nc3ccc4c(c3)CCC(=O)N4)ncc2C(F)(F)F)c1C [compound 82, 6-((4-(((4-Methoxy-3,5-dimethylpyridin-2-yl)methyl)amino)-5-(trifluoromethyl)pyrimidin-2-yl)amino)-3,4-dihydroquinolin-2(1H)-one] | < 200
3 | Nc1ncc(C(F)(F)F)c(Nc2ccc3c(c2)OCO3)n1 [165a, N^4-(benzo[d][1,3]dioxol-5-yl)-5-(trifluoromethyl)pyrimidine-2,4-diamine] | 200 to 2000
4 | CNC(=O)c1ccccc1Oc1nc(Nc2cc(OC)ccc2C)ncc1Br [compound 170, 2-((5-bromo-2-((5-methoxy-2-methylphenyl)amino)pyrimidin-4-yl)oxy)-N-methylbenzamide] | > 2000
5 | COc1ccc(Nc2nc(Nc3cc(OC)c(OC)c(OC)c3)ncc2Cl)cn1 [compound 24, 5-Chloro-N^4-(6-methoxypyridin-3-yl)-N^2-(3,4,5-trimethoxyphenyl)pyrimidine-2,4-diamine] | < 200
6 | O=C1CCc2cc(Nc3nc(NC4CCC4)ncc3C(F)(F)F)ccc2N1 [150b, 6-((2-(cyclobutylamino)-5-(trifluoromethyl)pyrimidin-4-yl)amino)-3,4-dihydroquinolin-2(1H)-one] | < 200
7 | O=C1CCc2cc(Nc3ncc(C(F)(F)F)c(OC4CCC4)n3)ccc2N1 [compound 175, 6-((4-cyclobutoxy-5-(trifluoromethyl)pyrimidin-2-yl)amino)-3,4-dihydroquinolin-2(1H)-one] | < 200
8 | CNC(=O)c1ccccc1Nc1nc(Nc2cc(N3CCOCC3)cc(N3CCOCC3)c2)ncc1Cl [compound 78, 2-(5-Chloro-2-(3,5-dimorpholinophenylamino)pyrimidin-4-ylamino)-N-methylbenzamide] | 200 to 2000
9 | COc1cc(Nc2nc(-n3nnc4ccccc43)ncc2Br)cc(O)c1OC [Example 331b] | 200 to 2000
10 | FC(F)(F)c1cnc(N2CCCC2)nc1Nc1ccc2c(c1)OCO2 [164a, N-(benzo[d][1,3]dioxol-5-yl)-2-(pyrrolidin-1-yl)-5-(trifluoromethyl)pyrimidin-4-amine] | > 2000
11 | FC(F)(F)c1cnc(NC2CC2)nc1Nc1cnc2[nH]ccc2c1 [152b, N^2-cyclopropyl-N^4-(1H-pyrrolo[2,3-b]pyridin-5-yl)-5-(trifluoromethyl)pyrimidine-2,4-diamine] | 200 to 2000
12 | COc1cc(Nc2ncc(Br)c(N(C)C(=O)c3ccccc3O)n2)cc(OC)c1OC [171b, N-(5-bromo-2-((3,4,5-trimethoxyphenyl)amino)pyrimidin-4-yl)-2-hydroxy-N-methylbenzamide] | < 200
13 | CNC(=O)c1ccccc1Nc1nc(Nc2ccc3c(c2)CCC(=O)N3)ncc1Br [compound 20, 2-((5-Bromo-2-((2-oxo-1,2,3,4-tetrahydroquinolin-6-yl)amino)pyrimidin-4-yl)amino)-N-methylbenzamide] | < 200
14 | FC(F)(F)c1cnc(Nc2ccc3c(c2)OCO3)nc1Nc1ccc2c(c1)OCO2 [124c, N^2,N^4-bis(benzo[d][1,3]dioxol-5-yl)-5-(trifluoromethyl)pyrimidine-2,4-diamine] | < 200
15 | CNC(=O)c1ccccc1Oc1nc(Nc2ccccc2OC)ncc1C(F)(F)F [compound 103, 2-((2-((2-methoxyphenyl)amino)-5-(trifluoromethyl)pyrimidin-4-yl)oxy)-N-methylbenzamide] | > 2000
16 | O=C1CCc2cc(Nc3ncc(C(F)(F)F)c(C#Cc4ccccc4)n3)ccc2N1 [compound 64, 6-(4-(Phenylethynyl)-5-(trifluoromethyl)pyrimidin-2-ylamino)-3,4-dihydroquinolin-2(1H)-one] | > 2000
17 | CNC(=O)c1ccccc1Nc1nc(Nc2ccc3c(c2)CCC(=O)N3)ncc1C(F)(F)F [compound 76, N-Methyl-2-(2-(2-oxo-1,2,3,4-tetrahydroquinolin-6-ylamino)-5-(trifluoromethyl)pyrimidin-4-ylamino)benzamide] | < 200
18 | O=C1CCc2cc(Nc3ncc(C(F)(F)F)c(OC4Cc5ccccc5C4)n3)ccc2N1 [180a, 6-((4-((2,3-dihydro-1H-inden-2-yl)oxy)-5-(trifluoromethyl)pyrimidin-2-yl)amino)-3,4-dihydroquinolin-2(1H)-one] | < 200
19 | COc1cc(N2CCOCC2)ccc1Nc1ncc(C(F)(F)F)c(Nc2ccccn2)n1 [compound 46, N^2-(2-Methoxy-4-morpholinophenyl)-N^4-(pyridin-2-yl)-5-(trifluoromethyl) pyrimidine-2,4-diamine] | 200 to 2000
20 | CNS(=O)(=O)c1ccccc1Nc1nc(Nc2ccc(N3CCOCC3)cc2OC)ncc1Br [compound 75, 2-(5-Bromo-2-(2-methoxy-4-morpholinophenylamino)pyrimidin-4-ylamino)-N-methylbenzenesulfonamide] | 200 to 2000
21 | CC(=O)Nc1ccc(Nc2nc(Nc3ccc4c(c3)CCC(=O)N4)ncc2C(F)(F)F)cc1 [compound 132, N-(4-((2-((2-oxo-1,2,3,4-tetrahydroquinolin-6-yl)amino)-5-(trifluoromethyl)pyrimidin-4-yl)amino)phenyl)acetamide] | < 200

Row | Compound | IC50 [nM]
22 | CNC(=O)c1ccccc1Nc1nc(Nc2ccc(N3CCOCC3)cc2OC)ncc1C(F)(F)F [compound 39, 2-(2-(2-Methoxy-4-morpholinophenylamino)-5-(trifluoromethyl)pyrimidin-4-ylamino)-N-methylbenzamide] | < 200
23 | FC(F)(F)c1cnc(Nc2ccc3c(c2)OCO3)nc1NCC1CC1 [167b, N^2-(benzo[d][1,3]dioxol-5-yl)-N^4-(cyclopropylmethyl)-5-(trifluoromethyl)pyrimidine-2,4-diamine] | < 200
24 | FC(F)(F)c1cnc(N2CCC2)nc1Nc1ccc2c(c1)OCO2 [166a, 2-(azetidin-1-yl)-N-(benzo[d][1,3]dioxol-5-yl)-5-(trifluoromethyl)pyrimidin-4-amine] | > 2000
25 | O=C1CCc2cc(Nc3ncc(Br)c(Nc4ccccn4)n3)ccc2N1 [compound 155, 6-((5-bromo-4-(pyridin-2-ylamino)pyrimidin-2-yl)amino)-3,4-dihydroquinolin-2(1H)-one] | < 200
26 | O=C1CCc2cc(Nc3ncc(C(F)(F)F)c(NC4CCCC4)n3)ccc2N1 [160a, 6-((4-(cyclopentylamino)-5-(trifluoromethyl)pyrimidin-2-yl)amino)-3,4-dihydroquinolin-2(1H)-one] | < 200
27 | CNC(=O)c1ccccc1Oc1nc(Nc2ccccc2)ncc1Br [compound 111, 2-((5-bromo-2-(phenylamino)pyrimidin-4-yl)oxy)-N-methyl benzamide] | > 2000
28 | O=C1CCc2cc(Nc3nc(NC4Cc5ccccc5C4)ncc3C(F)(F)F)ccc2N1 [130b, 6-((2-((2,3-dihydro-1H-inden-2-yl)amino)-5-(trifluoromethyl)pyrimidin-4-yl)amino)-3,4-dihydroquinolin-2(1H)-one] | > 2000
29 | CNC(=O)c1ccccc1Nc1nc(Nc2cc(OC)ccc2C)ncc1Br [compound 17, 2-(5-Bromo-2-(5-methoxy-2-methylphenylamino)pyrimidin-4-ylamino)-N-methylbenzamide] | < 200
30 | COc1cc(N2CCOCC2)ccc1Nc1ncc(C(F)(F)F)c(NCc2cccc(S(C)(=O)=O)c2)n1 [compound 52, N^2-(2-Methoxy-4-morpholinophenyl)-N^4-(3-(methylsulfonyl)benzyl)-5-(trifluoromethyl)pyrimidine-2,4-diamine] | > 2000
31 | FC(F)(F)c1cnc(Nc2cccc3ccccc23)nc1Nc1cccc2ccccc12 [126b, N^2,N^4-di(naphthalen-1-yl)-5-(trifluoromethyl) pyrimidine-2,4-diamine] | 200 to 2000
32 | CNC(=O)c1ccccc1Oc1nc(Nc2ccc3c(c2)CCC(=O)N3)ncc1C(F)(F)F [compound 110, N-methyl-2-((2-((2-oxo-1,2,3,4-tetrahydroquinolin-6-yl)amino)-5-(trifluoromethyl)pyrimidin-4-yl)oxy)benzamide] | 200 to 2000
33 | CNC(=O)c1ccccc1Oc1nc(Nc2ccccc2SC)ncc1C(F)(F)F [116a, N-methyl-2-((2-((2-(methylthio)phenyl)amino)-5-(trifluoromethyl)pyrimidin-4-yl)oxy)benzamide] | > 2000
34 | O=C1CCc2cc(Nc3ncc(C(F)(F)F)c(Nc4ccccc4OC(F)F)n3)ccc2N1 [120a, 6-((4-((2-(difluoromethoxy)phenyl)amino)-5-(trifluoromethyl)pyrimidin-2-yl)amino)-3,4-dihydroquinolin-2(1H)-one] | < 200
35 | O=C1CCc2cc(Nc3ncc(C(F)(F)F)c(NC4Cc5ccccc5C4)n3)ccc2N1 [130a, 6-((4-((2,3-dihydro-1H-inden-2-yl)amino)-5-(trifluoromethyl)pyrimidin-2-yl)amino)-3,4-dihydroquinolin-2(1H)-one] | < 200
36 | O=C1CCc2cc(Nc3ncc(Cl)c(Nc4ccc5c(c4)CCC(=O)N5)n3)ccc2N1 [compound 134, 6,6′-((5-chloropyrimidine-2,4-diyl)bis(azanediyl))bis(3,4-dihydroquinolin-2(1H)-one)] | < 200
37 | CNC(=O)c1cccc(Oc2nc(Nc3ccc4c(c3)CCC(=O)N4)ncc2C(F)(F)F)c1 [compound 122, N-methyl-3-((2-((2-oxo-1,2,3,4-tetrahydroquinolin-6-yl)amino)-5-(trifluoromethyl)pyrimidin-4-yl)oxy)benzamide] | 200 to 2000
38 | CNc1nc(Nc2cnc3[nH]ccc3c2)ncc1C(F)(F)F [182a, N4-methyl-N2-(1H-pyrrolo[2,3-b]pyridin-5-yl)-5-(trifluoromethyl)pyrimidine-2,4-diamine] | < 200
39 | CNC(=O)c1ccccc1Nc1nc(Nc2ccccc2C)ncc1Cl [compound 53, 2-(5-Chloro-2-(o-tolylamino)pyrimidin-4-ylamino)-N-methylbenzamide] | > 2000
40 | O=C1CCc2cc(Nc3nc(NC4CCCC4)ncc3C(F)(F)F)ccc2N1 [160b, 6-((2-(cyclopentylamino)-5-(trifluoromethyl)pyrimidin-4-yl)amino)-3,4-dihydroquinolin-2(1H)-one] | 200 to 2000
41 | CSc1ccccc1Nc1ncc(C(F)(F)F)c(Nc2ccccc2SC)n1 [116b, N^2,N^4-bis(2-(methylthio)phenyl)-5-(trifluoromethyl)pyrimidine-2,4-diamine] | > 2000
